Some test systems named below: A549; DLD-1; HCT-15; HL-60; KM-20L2; KM12; LOX IMVI; OVCAR-3; OVCAR-4; OVCAR-5; OVCAR-8; RPMI-8226; SF-268; SF-295; SK-MEL-28; SNB-19; SNB-75; UACC-257; ACHN; TK-10.
Common to all, as to assay: NCI-60 cell line screen, 48 h

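Tested at 5 concentrations; 48 h exposure; 96-well plates; endpoints linearly interpolated, else capped at highest concentration. GI50 is the concentration that inhibits growth by half.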 The source made the active and inactive calls. No stated cut-off is given here; in the data, active = GI50 up to about 1.1 µM and inactive = higher.

For the molecule `CCCCc1nccc2c(C)c3[nH]c4ccccc4c3cc12`, the GI50 is 3.87 µM (inactive) with A549; 2.81 µM (inactive) with DLD-1; 2.07 µM with HCT-15; 1.83 µM (inactive) in the assay on HL-60; 2.86 µM (inactive) in the assay with KM-20L2; 3.09 µM (inactive) in the assay on KM12. The GI50 in the assay with LOX IMVI is 1.5 µM (inactive); with OVCAR-3, 2.79 µM (inactive); with OVCAR-4, 3.91 µM (inactive); in the assay with OVCAR-5 it was 6.44 µM (inactive); in the assay on OVCAR-8 it was 2.84 µM (inactive); in the assay on RPMI-8226, 2 µM (inactive). For the same molecule, the GI50 in the assay with SF-268 is 5.87 µM (inactive); in the assay with SF-295, 2.68 µM (inactive); with SK-MEL-28 it was 4.26 µM (inactive); with SNB-19, 5 µM (inactive); in the assay on SNB-75, 5.93 µM (inactive); in the assay with UACC-257 it was 2.42 µM (inactive).

Regarding `NCCCCNCCCNC(=O)c1nc(-c2csc(CCN)n2)sc1Cl`, the GI50 was > 100 µM (inactive) in the assay on A549; > 100 µM (inactive) in the assay with ACHN; > 100 µM (inactive) in the assay with DLD-1; above 100 µM in the assay with HCT-15; > 100 µM (inactive) in the assay on HL-60; > 100 µM (inactive) with KM-20L2. In addition, the GI50 with KM12, in the assay with OVCAR-3, in the assay on OVCAR-4, in the assay on OVCAR-5, in the assay with OVCAR-8 and with RPMI-8226 was > 100 µM (inactive) throughout. In addition, the GI50 in the assay with SF-268 was 62.7 µM (inactive); in the assay with SF-295 it was > 100 µM (inactive); with SK-MEL-28 it was > 100 µM (inactive); in the assay on SNB-19 it was > 100 µM (inactive); in the assay on SNB-75 it was > 100 µM (inactive); in the assay on TK-10 it was > 100 µM (inactive). Moreover, the GI50 in the assay with UACC-257 was > 100 µM (inactive).

Take `CC(C)OP(=O)(OC(C)C)C1=NN(c2ccc([N+](=O)[O-])cc2)C(P(=O)(OC(C)C)OC(C)C)=NN1c1ccc([N+](=O)[O-])cc1`: the GI50 was 7.94 µM (inactive) in the assay with A549; > 100 µM (inactive) in the assay on ACHN; 5.32 µM (inactive) with DLD-1; 9.18 µM with HCT-15; 2.55 µM (inactive) in the assay with HL-60; > 100 µM (inactive) in the assay on KM-20L2. In addition, the GI50 in the assay on KM12 is 67.3 µM (inactive); with LOX IMVI it was > 100 µM (inactive); in the assay with OVCAR-3, > 100 µM (inactive); in the assay with OVCAR-4, > 100 µM (inactive); in the assay on OVCAR-5, > 100 µM (inactive); in the assay on OVCAR-8 it was 38.1 µM (inactive). Further, the GI50 was 5.62 µM (inactive) in the assay with RPMI-8226; > 100 µM (inactive) in the assay with SF-268; > 100 µM (inactive) with SK-MEL-28; > 100 µM (inactive) in the assay with SNB-19; > 100 µM (inactive) with TK-10.

As for `O=C1CCC[C@H]2O[C@@H](COC(=O)c3ccccc3)C[C@H]2O1`, the GI50 in the assay on A549 is > 100 µM (inactive); in the assay with ACHN, > 100 µM (inactive); in the assay on HCT-15, above 100 µM; in the assay with HL-60 it was > 100 µM (inactive); in the assay with KM12, > 100 µM (inactive); in the assay with OVCAR-3, > 100 µM (inactive). For the same molecule, the GI50 in the assay with OVCAR-4, in the assay with OVCAR-5, in the assay on OVCAR-8, with RPMI-8226, in the assay on SF-268 and in the assay with SF-295 was > 100 µM (inactive) in each case. Moreover, the GI50 in the assay on SK-MEL-28, in the assay with SNB-19, with SNB-75 and in the assay with UACC-257 was > 100 µM (inactive) in each case.

As for `C=C(C[C@@H](O)[C@H](C)NC(=O)OCc1ccccc1)C(=O)OC(C)(C)C`, the GI50 in the assay on A549 was > 100 µM (inactive); in the assay with ACHN, > 100 µM (inactive); in the assay on HCT-15, above 100 µM; with HL-60, 26.3 µM (inactive); in the assay with KM12 it was > 100 µM (inactive); in the assay on LOX IMVI, 53.8 µM (inactive). Besides, the GI50 in the assay on OVCAR-3 was 78.2 µM (inactive); in the assay with OVCAR-4 it was 47.5 µM (inactive); with OVCAR-5, > 100 µM (inactive); with OVCAR-8 it was 66.8 µM (inactive); with RPMI-8226, 29.8 µM (inactive); in the assay with SF-268, > 100 µM (inactive). For the same molecule, the GI50 is 89.1 µM (inactive) with SF-295; > 100 µM (inactive) in the assay on SK-MEL-28; > 100 µM (inactive) with SNB-19; 79.8 µM (inactive) in the assay on SNB-75; > 100 µM (inactive) in the assay on TK-10; 32.1 µM (inactive) with UACC-257.

In the case of `O=S1(=O)C(=C(c2ccccc2)c2ccccc2)S(=O)(=O)c2ccccc21`, the GI50 was > 100 µM (inactive) with A549; > 100 µM (inactive) with DLD-1; above 100 µM with HCT-15; > 100 µM (inactive) in the assay with HL-60; > 100 µM (inactive) with KM-20L2; > 100 µM (inactive) with KM12. For the same molecule, the GI50 is > 100 µM (inactive) in the assay with LOX IMVI; > 57.9 µM (inactive) in the assay with OVCAR-3; 83.6 µM (inactive) in the assay on OVCAR-4; > 100 µM (inactive) in the assay on OVCAR-5; > 100 µM (inactive) in the assay on OVCAR-8; > 100 µM (inactive) with RPMI-8226. The GI50 in the assay on SF-268 is > 72.6 µM (inactive); with SF-295 it was 33.8 µM (inactive); in the assay on SK-MEL-28, > 100 µM (inactive); with SNB-19, > 58.1 µM (inactive); in the assay with SNB-75 it was 20.2 µM (inactive); in the assay on UACC-257 it was > 100 µM (inactive).

`O=C(NCCN(CCNC(=O)c1cccc(=O)n1O)CCNC(=O)c1cccc(=O)n1O)c1cccc(=O)n1O`: the GI50 in the assay with A549 was > 100 µM (inactive); in the assay on ACHN, > 100 µM (inactive); in the assay with HCT-15, above 100 µM; with HL-60, > 100 µM (inactive); with KM12 it was > 100 µM (inactive); in the assay with OVCAR-3, > 100 µM (inactive). Besides, the GI50 in the assay with OVCAR-4, in the assay on OVCAR-5, in the assay on OVCAR-8, with RPMI-8226, with SF-268 and in the assay on SF-295 was > 100 µM (inactive) in each case. Further, the GI50 in the assay with SK-MEL-28, in the assay on SNB-19, in the assay with SNB-75, in the assay with TK-10 and in the assay on UACC-257 was > 100 µM (inactive) throughout.

On to `Cc1cn([C@@H]2C[C@H](CO)[C@@H](O)C2)c(=O)[nH]c1=O`, for which the GI50 is > 100 µM (inactive) with A549; > 100 µM (inactive) with ACHN; > 100 µM (inactive) with DLD-1; above 100 µM in the assay on HCT-15; > 100 µM (inactive) in the assay with HL-60; > 100 µM (inactive) with KM-20L2. For the same molecule, the GI50 with KM12, in the assay with LOX IMVI, in the assay with OVCAR-3, in the assay on OVCAR-4, in the assay with OVCAR-5 and with OVCAR-8 was > 100 µM (inactive) throughout. Further, the GI50 in the assay on SF-268 is > 100 µM (inactive); in the assay with SF-295, > 100 µM (inactive); in the assay with SK-MEL-28 it was > 100 µM (inactive); in the assay with SNB-19 it was > 100 µM (inactive); in the assay on SNB-75 it was 78.9 µM (inactive); in the assay on UACC-257, > 100 µM (inactive).

Regarding `COC1C(=O)CCC2(CO2)C1(O)C1(C)OC1CC=C(C)C` (stereo unspecified), the GI50 in the assay with A549 is 10.6 µM (inactive); in the assay with ACHN it was 17.6 µM (inactive); in the assay with HCT-15, 19 µM; in the assay with KM12, 16.2 µM (inactive); in the assay on LOX IMVI, 5.21 µM (inactive); in the assay on OVCAR-3 it was 25.2 µM (inactive). Moreover, the GI50 was > 100 µM (inactive) with OVCAR-4; 51.5 µM (inactive) with OVCAR-5; 30.9 µM (inactive) in the assay on OVCAR-8; 33.5 µM (inactive) in the assay on SF-268; 29.8 µM (inactive) with SF-295; 17.3 µM (inactive) in the assay on SK-MEL-28. For the same molecule, the GI50 was 15 µM (inactive) in the assay with SNB-19, 69.8 µM (inactive) with SNB-75, 22.9 µM (inactive) in the assay with TK-10 and 23.2 µM (inactive) in the assay with UACC-257.

As to `Cc1ccc(C(=O)N/N=C(\N=N\c2ccccc2)c2ccc(N(CCC#N)CCC#N)cc2C)cc1`, the GI50 was > 100 µM (inactive) with A549; > 100 µM (inactive) in the assay with ACHN; above 100 µM in the assay on HCT-15; > 100 µM (inactive) in the assay on HL-60; > 100 µM (inactive) in the assay with KM12; 99.1 µM (inactive) with LOX IMVI. Besides, the GI50 was 39.2 µM (inactive) in the assay with OVCAR-3; 65.5 µM (inactive) in the assay with OVCAR-4; > 100 µM (inactive) with OVCAR-5; 38 µM (inactive) in the assay with OVCAR-8; > 100 µM (inactive) in the assay on RPMI-8226; 24.2 µM (inactive) in the assay on SF-268. Moreover, the GI50 was 86.5 µM (inactive) with SF-295; 13 µM (inactive) in the assay on SK-MEL-28; 58.3 µM (inactive) in the assay on SNB-19; 34 µM (inactive) with SNB-75; 51.1 µM (inactive) with TK-10; 82.4 µM (inactive) in the assay with UACC-257.

For the molecule `C1=C(c2ccccc2)SC(N2CCCCC2)S1` (stereo unspecified), the GI50 is > 100 µM (inactive) in the assay on DLD-1; above 100 µM in the assay on HCT-15; 69 µM (inactive) with HL-60; > 100 µM (inactive) in the assay with KM-20L2; > 100 µM (inactive) with KM12; 72.9 µM (inactive) with LOX IMVI. Also, the GI50 in the assay on OVCAR-3 was > 100 µM (inactive); in the assay with OVCAR-4 it was > 100 µM (inactive); with OVCAR-5, > 100 µM (inactive); with RPMI-8226 it was 59.7 µM (inactive); in the assay with SF-268, > 100 µM (inactive); in the assay on SF-295 it was > 100 µM (inactive). Moreover, the GI50 with SNB-19 is > 100 µM (inactive); with SNB-75, 55.6 µM (inactive); in the assay on TK-10, > 100 µM (inactive); in the assay on UACC-257, > 100 µM (inactive).
